Earlier results in patent US7829544B2, “Aqueous solution preparation containing aminoglycoside antibiotic and bromfenac” (Senju Pharmaceutical Co., Ltd., priority 2003, dated 2010).

Details: tobramycin combined with diclofenac sodium

## NC[C@H]1O[C@H](O[C@H]2[C@H](O)[C@@H](O[C@H]3O[C@H](CO)[C@@H](O)[C@H](N)[C@H]3O)[C@H](N)C[C@@H]2N)[C@H](N)C[C@@H]1O [tobramycin]
  behaviour of the combination solution: precipitation or suspension formation occurs
